# US12226409B2, “Treatment of hepatocellular carcinoma” (Eisai R&D Management Co., Ltd., priority 2017, dated 2025)
# Test system: patients with unresectable HCC
# Assay: Open-label phase 3 study, safety and side-effect profile (CTCAE v4.0)
# [1] = Any grade, listed as lenvatinib
# From the text: Randomization was stratified according to region (Asia-Pacific or Western regions), macroscopic portal vein invasion and/or extrahepatic spread (yes or no), Eastern Cooperative Oncology Group performance status (0 or 1), and body weight (<60 kg or ≥60 kg).
# Safety assessments included recording of vital signs, hematologic and biochemical laboratory testing, urinalysis, and electrocardiography.
smiles,measurement,setting,value
"COc1cc2nccc(Oc3ccc(NC(=O)NC4CC4)c(Cl)c3)c2cc1C(N)=O [Lenvatinib, 4-(3-chloro-4(cyclopropylaminocarbonyl)aminophenoxy)-7-methoxy-6-quinolinecarboxamide]",TEAE: Alopecia,12 mg starting dose,9 (2.8) n (%)
same,TEAE: Ascites,12 mg starting dose,47 (14.5) n (%)
same,TEAE: Aspartate aminotransferase increased,12 mg starting dose,44 (13.5) n (%)
same,TEAE: Asthenia,12 mg starting dose,40 (12.3) n (%)
same,TEAE: Back pain,12 mg starting dose,39 (12.0) n (%)
same,TEAE: Blood bilirubin increased,12 mg starting dose,48 (14.8) n (%)
same,TEAE: Constipation,12 mg starting dose,57 (17.5) n (%)
same,TEAE: Decreased appetite,12 mg starting dose,112 (34.5) n (%)
same,TEAE: Diarrhea,12 mg starting dose,131 (40.3) n (%)
same,TEAE: Dysphonia,12 mg starting dose,85 (26.2) n (%)
same,TEAE: Edema peripheral,12 mg starting dose,43 (13.2) n (%)
same,TEAE: Fatigue,12 mg starting dose,99 (30.5) n (%)
same,TEAE: Hypertension,12 mg starting dose,136 (41.8) n (%)
same,TEAE: Hypothyroidism,12 mg starting dose,53 (16.3) n (%)
same,TEAE: Nausea,12 mg starting dose,69 (21.2) n (%)
same,TEAE: Palmar-plantar erythrodysesthesia syndrome,12 mg starting dose,93 (28.6) n (%)
same,TEAE: Platelet count decreased,12 mg starting dose,61 (18.8) n (%)
same,TEAE: Proteinuria,12 mg starting dose,80 (24.6) n (%)
same,TEAE: Pyrexia,12 mg starting dose,45 (13.8) n (%)
same,TEAE: Rash,12 mg starting dose,28 (8.6) n (%)
same,TEAE: Stomatitis,12 mg starting dose,34 (10.5) n (%)
same,TEAE: Vomiting,12 mg starting dose,55 (16.9) n (%)
same,TEAE: Weight decreased,12 mg starting dose,104 (32.0) n (%)
same,TEAE: Dysphonia,Any grade,(23.7) %
same,TEAE: Proteinuria,Any grade,(24.6) %
same,TEAE: decreased weight,Any grade,(30.9) %
same,TEAE: Dysphonia,[1],23.7%
same,TEAE: Hypertension,[1],42.2%
same,TEAE: Hypothyroidism,[1],16.4%
same,TEAE: Proteinuria,[1],24.6%
same,Primary reason for discontinuation of treatment: Adverse event,Full Analysis Set,63 (13.2) n (%)
same,"most common adverse reactions, in order of decreasing frequency",HCC subjects,"hypertension, fatigue, diarrhea, decreased appetite, arthralgia/myalgia, and decreased weight"
same,adverse event rate adjusted by patient-years,TEAEs of grade 3 or higher,3.2
same,adverse event rate adjusted by patient-years,all TEAEs,18.9
same,Dose modification: AST increased,in vivo,1.9%
same,Dose modification: ascites,in vivo,2.1%
same,Dose modification: hepatic encephalopathy,in vivo,4.2%
same,Dose modification: neutrophil count decreased,in vivo,2.3%
same,Dose modification: pyrexia,in vivo,2.5%
same,Dose modification: vomiting,in vivo,2.5%
same,Dose modification: weight decreased,in vivo,4.2%
same,Dose reduction/interruption: Gastrointestinal disorders,in vivo,18.3%
same,Dose reduction/interruption: General disorders and administration site conditions,in vivo,14.1%
same,Dose reduction/interruption: Investigations,in vivo,17.0%
same,Dose reduction/interruption: Metabolism and nutrition disorders,in vivo,10.9%
same,Dose reduction/interruption: PPE syndrome,in vivo,5.3%
same,Dose reduction/interruption: decreased appetite,in vivo,7.6%
same,Dose reduction/interruption: diarrhea,in vivo,7.6%
same,Dose reduction/interruption: fatigue,in vivo,5.7%
same,Dose reduction/interruption: hypertension,in vivo,6.1%
same,Dose reduction/interruption: proteinuria,in vivo,6.9%
same,"Treatment-emergent adverse events of grade 3 or higher, patients",in vivo,75.0%
same,"Treatment-emergent adverse events, patients",in vivo,98.7%
same,"WBC count deceased, adjusted by treatment duration",in vivo,0.25 episodes per SY
same,"dysphonia, adjusted by treatment duration",in vivo,0.4 episodes per SY
same,"hepatic encephalopathy, adjusted by treatment duration",in vivo,0.17 episodes per SY
same,"hypothyroidism, adjusted by treatment duration",in vivo,0.24 episodes per SY
same,"neutrophil count decreased, adjusted by treatment duration",in vivo,0.21 episodes per SY
same,"proteinuria, adjusted by treatment duration",in vivo,0.5 episodes per SY
same,subjects without a TEAE,in vivo,6 subjects
same,"AEs leading to dose reduction or interruption, subjects",unadjusted for treatment duration,61.8%
same,Dose reduction/interruption: Abdominal pain,whole arm,6 (1.3) n (%)
same,Dose reduction/interruption: Abdominal pain upper,whole arm,5 (1.1) n (%)
same,Dose reduction/interruption: Alanine aminotransferase increased,whole arm,6 (1.3) n (%)
same,Dose reduction/interruption: Anemia,whole arm,3 (0.6) n (%)
same,Dose reduction/interruption: Ascites,whole arm,10 (2.1) n (%)
same,Dose reduction/interruption: Aspartate aminotransferase increased,whole arm,9 (1.9) n (%)
same,Dose reduction/interruption: Asthenia,whole arm,16 (3.4) n (%)
same,Dose reduction/interruption: Blood and lymphatic system disorders,whole arm,16 (3.4) n (%)
same,Dose reduction/interruption: Blood bilirubin increased,whole arm,20 (4.2) n (%)
same,Dose reduction/interruption: Decreased appetite,whole arm,36 (7.6) n (%)
same,Dose reduction/interruption: Dehydration,whole arm,6 (1.3) n (%)
same,Dose reduction/interruption: Diarrhea,whole arm,36 (7.6) n (%)
same,Dose reduction/interruption: Dyspnea,whole arm,8 (1.7) n (%)
same,Dose reduction/interruption: Edema peripheral,whole arm,6 (1.3) n (%)
same,Dose reduction/interruption: Esophageal varices hemorrhage,whole arm,5 (1.1) n (%)
same,Dose reduction/interruption: Fatigue,whole arm,27 (5.7) n (%)
same,Dose reduction/interruption: Gamma-glutamyltransferase increased,whole arm,7 (1.5) n (%)
same,Dose reduction/interruption: Gastrointestinal disorders,whole arm,87 (18.3) n (%)
same,Dose reduction/interruption: General disorders and administration site conditions,whole arm,67 (14.1) n (%)
same,Dose reduction/interruption: Hepatic encephalopathy,whole arm,20 (4.2) n (%)
same,Dose reduction/interruption: Hepatic function abnormal,whole arm,2 (0.4) n (%)
same,Dose reduction/interruption: Hepatobiliary disorders,whole arm,27 (5.7) n (%)
same,Dose reduction/interruption: Hypertension,whole arm,29 (6.1) n (%)
same,Dose reduction/interruption: Hyponatremia,whole arm,5 (1.1) n (%)
same,Dose reduction/interruption: Investigations,whole arm,81 (17.0) n (%)
same,Dose reduction/interruption: Malaise,whole arm,5 (1.1) n (%)
same,Dose reduction/interruption: Metabolism and nutrition disorders,whole arm,52 (10.9) n (%)
same,Dose reduction/interruption: Musculoskeletal and connective tissue disorders,whole arm,18 (3.8) n (%)
same,Dose reduction/interruption: Myalgia,whole arm,5 (1.1) n (%)
same,Dose reduction/interruption: Nausea,whole arm,16 (3.4) n (%)
same,Dose reduction/interruption: Nervous system disorders,whole arm,35 (7.4) n (%)
same,Dose reduction/interruption: Neutropenia,whole arm,6 (1.3) n (%)
same,Dose reduction/interruption: Neutrophil count decreased,whole arm,11 (2.3) n (%)
same,Dose reduction/interruption: Palmar-plantar erythrodysesthesia syndrome,whole arm,25 (5.3) n (%)
same,Dose reduction/interruption: Platelet count decreased,whole arm,22 (4.6) n (%)
same,Dose reduction/interruption: Proteinuria,whole arm,33 (6.9) n (%)
same,Dose reduction/interruption: Pyrexia,whole arm,12 (2.5) n (%)
same,Dose reduction/interruption: Rash,whole arm,2 (0.4) n (%)
same,Dose reduction/interruption: Rash maculo-papular,whole arm,0 (0.0) n (%)
same,Dose reduction/interruption: Renal and urinary disorders,whole arm,40 (8.4) n (%)
same,"Dose reduction/interruption: Respiratory, thoracic and mediastinal disorders",whole arm,16 (3.4) n (%)
same,Dose reduction/interruption: Skin and subcutaneous tissue disorders,whole arm,28 (5.9) n (%)
same,Dose reduction/interruption: Stomatitis,whole arm,6 (1.3) n (%)
same,Dose reduction/interruption: Thrombocytopenia,whole arm,6 (1.3) n (%)
same,Dose reduction/interruption: Vascular disorders,whole arm,33 (6.9) n (%)
same,Dose reduction/interruption: Vomiting,whole arm,12 (2.5) n (%)
same,Dose reduction/interruption: Weight decreased,whole arm,20 (4.2) n (%)
same,Dose reduction/interruption: White blood cell count decreased,whole arm,6 (1.3) n (%)
same,Subjects with Any TEAEs,whole arm,470 (98.7) n (%)
same,Subjects with any TEAEs leading to Dose Reduction or Interruption,whole arm,294 (61.8) n (%)
same,TEAE: Abdominal pain,whole arm,81 (17.0) n (%)
same,TEAE: Abdominal pain upper,whole arm,58 (12.2) n (%)
same,TEAE: Alanine aminotransferase increased,whole arm,53 (11.1) n (%)
same,TEAE: Alopecia,whole arm,14 (2.9) n (%)
same,TEAE: Ascites,whole arm,68 (14.3) n (%)
same,TEAE: Aspartate aminotransferase increased,whole arm,65 (13.7) n (%)
same,TEAE: Asthenia,whole arm,54 (11.3) n (%)
same,TEAE: Back pain,whole arm,50 (10.5) n (%)
same,TEAE: Blood bilirubin increased,whole arm,71 (14.9) n (%)
same,TEAE: Constipation,whole arm,76 (16.0) n (%)
same,TEAE: Decreased appetite,whole arm,162 (34.0) n (%)
same,TEAE: Diarrhea,whole arm,184 (38.7) n (%)
same,TEAE: Dysphonia,whole arm,113 (23.7) n (%)
same,TEAE: Edema peripheral,whole arm,66 (13.9) n (%)
same,TEAE: Fatigue,whole arm,141 (29.6) n (%)
same,TEAE: Hypertension,whole arm,201 (42.2) n (%)
same,TEAE: Hypothyroidism,whole arm,78 (16.4) n (%)
same,TEAE: Nausea,whole arm,93 (19.5) n (%)
same,TEAE: Palmar-plantar erythrodysesthesia syndrome,whole arm,128 (26.9) n (%)
same,TEAE: Platelet count decreased,whole arm,87 (18.3) n (%)
same,TEAE: Proteinuria,whole arm,117 (24.6) n (%)
same,TEAE: Pyrexia,whole arm,69 (14.5) n (%)
same,TEAE: Rash,whole arm,46 (9.7) n (%)
same,TEAE: Stomatitis,whole arm,45 (9.5) n (%)
same,TEAE: Vomiting,whole arm,77 (16.2) n (%)
same,TEAE: Weight decreased,whole arm,147 (30.9) n (%)
